Test results taken from the NIST ThermoML archive (doi:10.1016/j.jct.2012.02.036).
Several values for one entry are separate records, joined by “and”; a condition that tells them apart may be missing. Equal entries are not always repeated. Numbers after ± are expanded uncertainties.

Tests used:
[1] = Liquid; for mass density: Vibrating tube method
[2] = xn = mol fraction of the nth substance listed; details: 101 kPa, Liquid, x2 = 0; for mass density: Vibrating tube method
[3] = 293.15 K, 101.33 kPa, Capillary tube (Ostwald / Ubbelohde) method
[4] = 303.15 K, 101.33 kPa, Capillary tube (Ostwald / Ubbelohde) method
[5] = 313.15 K, 101.33 kPa, Capillary tube (Ostwald / Ubbelohde) method
[6] = 323.15 K, 101.33 kPa, Capillary tube (Ostwald / Ubbelohde) method
[7] = 333.15 K, 101.33 kPa, Capillary tube (Ostwald / Ubbelohde) method

Structure (SMILES)	viscosity ([1]; 293.15 K, 101 kPa)	mass density ([1]; 293.15 K, 101 kPa) [kg/m3]	viscosity [1, 3] [mPa·s]	mass density ([1]; 293.15 K, 101.33 kPa) [kg/m3]	viscosity ([1]; 303.15 K, 101 kPa) [mPa·s]	viscosity [1, 4] [mPa·s]	mass density ([1]; 303.15 K, 101.33 kPa) [kg/m3]	viscosity ([1]; 313.15 K, 101 kPa) [mPa·s]	viscosity [1, 5] [mPa·s]	mass density ([1]; 313.15 K, 101.33 kPa) [kg/m3]	viscosity ([1]; 323.15 K, 101 kPa) [mPa·s]	viscosity [1, 6] [mPa·s]	mass density ([1]; 323.15 K, 101.33 kPa) [kg/m3]	viscosity [1, 7] [mPa·s]	mass density ([1]; 333.15 K, 101.33 kPa) [kg/m3]	mass density ([2]; 293.15 K) [kg/m3]	viscosity ([2]; 293.15 K) [mPa·s]	mass density ([2]; 303.15 K) [kg/m3]	viscosity ([2]; 303.15 K) [mPa·s]	viscosity ([1]; 333.15 K, 101 kPa)	further results
CC(C)CO [2-methyl-1-propanol]	4.197 ± 0.23 mPa·s	801.8 ± 0.2	4.085 ± 0.025	801.75 ± 0.24	2.873 ± 0.16	2.877 ± 0.018	793.99 ± 0.24	1.926 ± 0.11	2.091 ± 0.013	786.04 ± 0.24	1.232 ± 0.074	1.576 ± 0.01	777.85 ± 0.24	1.124 ± 0.007	769.36 ± 0.24	–	–	–	–	0.665 ± 0.044 mPa·s	–
CC(C)CO [2-methyl-1-propanol] + NCCCO	–	–	–	–	–	–	–	–	–	–	–	–	–	–	–	801.8 ± 0.2	4.197 ± 0.23	793.99 ± 0.24	2.873 ± 0.16	–	mass density ([2]; 313.15 K): 786.04 ± 0.24 kg/m3; viscosity ([2]; 313.15 K): 1.926 ± 0.11 mPa·s; mass density ([2]; 323.15 K): 777.85 ± 0.24 kg/m3; viscosity ([2]; 323.15 K): 1.232 ± 0.074 mPa·s; mass density ([2]; 333.15 K): 769.36 ± 0.24 kg/m3
NCCCO [3-amino-1-propanol]	40.45 ± 1.7 mPa·s and 40.46 ± 1.7 mPa·s	987.65 ± 0.29	40.42 ± 0.2	987.55 ± 0.21	23.98 ± 1	23.87 ± 0.12	979.53 ± 0.22	15.31 ± 0.68	15.27 ± 0.078	971.47 ± 0.22	10.22 ± 0.48	10.22 ± 0.054	963.37 ± 0.22	7.123 ± 0.04	955.22 ± 0.22	–	–	–	–	6.961 ± 0.35 mPa·s and 6.962 ± 0.35 mPa·s	mass density ([1]; 303.15 K, 101 kPa): 979.65 ± 0.29 kg/m3; mass density ([1]; 313.15 K, 101 kPa): 971.61 ± 0.29 kg/m3; mass density ([1]; 323.15 K, 101 kPa): 963.52 ± 0.29 kg/m3; mass density ([1]; 333.15 K, 101 kPa): 955.38 ± 0.29 kg/m3

Further lines, with some results ahead:

viscosity ([1]; 293.15 K, 101 kPa)	mass density ([1]; 293.15 K, 101 kPa) [kg/m3]	viscosity [1, 3] [mPa·s]	mass density ([1]; 293.15 K, 101.33 kPa) [kg/m3]	viscosity ([1]; 303.15 K, 101 kPa) [mPa·s]	viscosity [1, 4] [mPa·s]	mass density ([1]; 303.15 K, 101.33 kPa) [kg/m3]	viscosity ([1]; 313.15 K, 101 kPa) [mPa·s]	viscosity [1, 5] [mPa·s]	mass density ([1]; 313.15 K, 101.33 kPa) [kg/m3]	viscosity ([1]; 323.15 K, 101 kPa) [mPa·s]	viscosity [1, 6] [mPa·s]	mass density ([1]; 323.15 K, 101.33 kPa) [kg/m3]	viscosity [1, 7] [mPa·s]	mass density ([1]; 333.15 K, 101.33 kPa) [kg/m3]	mass density ([2]; 293.15 K) [kg/m3]	viscosity ([2]; 293.15 K) [mPa·s]	mass density ([2]; 303.15 K) [kg/m3]	viscosity ([2]; 303.15 K) [mPa·s]	Structure (SMILES)	viscosity ([1]; 333.15 K, 101 kPa)	further results
2.318 ± 0.13 mPa·s	785.36 ± 0.24	2.362 ± 0.015	785.25 ± 0.24	1.596 ± 0.094	1.769 ± 0.011	776.78 ± 0.24	0.996 ± 0.062	1.33 ± 0.0086	767.98 ± 0.24	–	1.014 ± 0.0068	758.82 ± 0.25	–	749.2 ± 0.25	–	–	–	–	CC(C)O [propan-2-ol]	–	mass density ([1]; 303.15 K, 101 kPa): 776.87 ± 0.24 kg/m3; mass density ([1]; 313.15 K, 101 kPa): 768.07 ± 0.24 kg/m3; mass density ([1]; 323.15 K, 101 kPa): 758.89 ± 0.24 kg/m3; mass density ([1]; 333.15 K, 101 kPa): 749.25 ± 0.25 kg/m3
–	–	–	–	–	–	–	–	–	–	–	–	–	–	–	785.36 ± 0.24	2.318 ± 0.13	776.87 ± 0.24	1.596 ± 0.094	CC(C)O [propan-2-ol] + NCCCO	–	mass density ([2]; 313.15 K): 768.07 ± 0.24 kg/m3; viscosity ([2]; 313.15 K): 0.996 ± 0.062 mPa·s; mass density ([2]; 323.15 K): 758.89 ± 0.24 kg/m3; mass density ([2]; 333.15 K): 749.25 ± 0.25 kg/m3
